Results: the NIST ThermoML archive (doi:10.1016/j.jct.2005.03.012)

Assay: molar heat capacity at constant pressure; xn = mol fraction of the nth substance listed
Settings: Liquid, Flow calorimetry

CO [methanol] + O
Settings | molar heat capacity at constant pressure [J/K/mol]
472.41 K, 8500 kPa, x1 = 0.4 | 110.52
472.56 K, 5000 kPa, x1 = 0.5 | 119.44
472.78 K, 8500 kPa, x1 = 0.2 | 96.55
472.91 K, 5000 kPa, x1 = 0.3 | 104.69
472.98 K, 5000 kPa, x1 = 0.6 | 127.9
473.11 K, 5000 kPa, x1 = 0.7 | 135.08
473.16 K, 5000 kPa, x1 = 0.8 | 143
473.21 K, 10000 kPa, x1 = 0.8 | 135.8
473.53 K, 10000 kPa, x1 = 0.2 | 96.73
473.95 K, 5000 kPa, x1 = 0.9 | 153.78
474.26 K, 5000 kPa, x1 = 0.2 | 96.84
474.27 K, 5000 kPa, x1 = 0.1 | 89.79
474.92 K, 8500 kPa, x1 = 0.8 | 138.52
497 K, 10000 kPa, x1 = 0.2 | 100.23
497 K, 10000 kPa, x1 = 0.4 | 117.78
497.3 K, 8500 kPa, x1 = 0.3 | 109.45
497.56 K, 8500 kPa, x1 = 0.4 | 118.93
497.97 K, 8500 kPa, x1 = 0.2 | 101.63
498.08 K, 8500 kPa, x1 = 0.5 | 128.47
498.33 K, 8500 kPa, x1 = 0.6 | 139.08
498.46 K, 10000 kPa, x1 = 0.6 | 136.33
499.19 K, 8500 kPa, x1 = 0.1 | 92.18
499.79 K, 8500 kPa, x1 = 0.8 | 166.33
499.83 K, 10000 kPa, x1 = 0.8 | 159.51
499.85 K, 8500 kPa, x1 = 0.7 | 152.5
500.37 K, 8500 kPa, x1 = 0.9 | 185.8
507.38 K, 10000 kPa, x1 = 0.2 | 104.52
507.6 K, 10000 kPa, x1 = 0.4 | 122.36
508.54 K, 10000 kPa, x1 = 0.6 | 145.98
508.68 K, 8500 kPa, x1 = 0.1 | 95.38
508.96 K, 8500 kPa, x1 = 0.2 | 103.83
509.5 K, 10000 kPa, x1 = 0.8 | 178.64
509.58 K, 8500 kPa, x1 = 0.4 | 124.67
510.29 K, 8500 kPa, x1 = 0.5 | 137.86
510.32 K, 8500 kPa, x1 = 0.3 | 114.54
511.09 K, 8500 kPa, x1 = 0.8 | 204.86
511.15 K, 8500 kPa, x1 = 0.7 | 175.97
511.4 K, 8500 kPa, x1 = 0.6 | 155.15
511.68 K, 8500 kPa, x1 = 0.9 | 268
513.62 K, 10000 kPa, x1 = 0.5 | 138.48
514.03 K, 10000 kPa, x1 = 0.4 | 126.54
514.03 K, 10000 kPa, x1 = 0.6 | 154.89
514.08 K, 10000 kPa, x1 = 0.3 | 115.36
514.53 K, 10000 kPa, x1 = 0.1 | 95.01
514.91 K, 10000 kPa, x1 = 0.2 | 105.19
514.98 K, 10000 kPa, x1 = 0.9 | 229.95
515.2 K, 10000 kPa, x1 = 0.8 | 198.37
515.25 K, 10000 kPa, x1 = 0.7 | 174.88
515.73 K, 8500 kPa, x1 = 0.1 | 95.69
516.4 K, 8500 kPa, x1 = 0.9 | 508.52
517.62 K, 8500 kPa, x1 = 0.2 | 106.77
517.97 K, 8500 kPa, x1 = 0.3 | 119.14
518.82 K, 8500 kPa, x1 = 0.8 | 303.27
519.33 K, 8500 kPa, x1 = 0.4 | 133.94
519.69 K, 8500 kPa, x1 = 0.7 | 212.23
520.61 K, 8500 kPa, x1 = 0.5 | 150.12
522.42 K, 8500 kPa, x1 = 0.6 | 186.76
